Results from patent US10590106B2, “Certain chemical entities, compositions, and methods” (NeuPharma, Inc., priority 2012, dated 2020).

What was measured:
BRAF = BRAF (Homo sapiens (Human), UniProt P15056); experiment: Inhibitory activity against kinase BRAF, Z'-LYTE method (Invitrogen); format: biochemical; conditions: 1 μM compound
Method: Inhibitory activities Inhibitory activities of compounds against BRAF, and BRAF V600E were measured by Invitrogen using Z′-LYTE® Method as briefly described in the following. 4× Test compounds are dissolved in 1% DMSO. […] ATP solutions are diluted to a 4×ATP working concentration in Kinase Buffer (50 mM HEPES pH 7.5, 0.01% BRIJ-35, 10 mM MgCl2, 1 mM EGTA). Reaction started by 30-second shaking of mixture consisting of 2.5 μL 4× test compound, […] and 2.5 μL 4×ATP Solution on Bar-coded Corning, low volume NBS, black 384-well plate (Corning Cat. #3676). Then the mixture was incubated for 60-minute at room temperature for the kinase reaction, followed by addition of 5 μL of a 1:1024 dilution of development reagent A and 30-second plate shake. The mixture was then incubated for another 60-minute at room temperature for development reaction. Fluorescence was read by plate reader. IC50 was calculated by plotting the concentration of compound vs the percentage of inhibition in treated wells using GraphPad Prism 5.
Table 2 and 3 show % inhibition at 1 μM of several compounds of the invention against BRAF and BRAF V600E, respectively, using Z′-LYTE® method.

KDR (VEGFR2) = KDR (VEGFR2) (Homo sapiens (Human), UniProt P35968); experiment: Inhibitory activity against kinase KDR, Z'-LYTE method (Invitrogen); format: biochemical; conditions: for inhibition at 1 µM: 1 μM compound, read-out: Inhibition (% inhibition at 1 μM) against KDR
Method in brief: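 Human KDR (VEGFR2) kinase inhibition was measured with Invitrogen's Z′-LYTE® method. A 2× mixture of KDR and Tyr 01 peptide is made in 50 mM HEPES pH 7.5, 0.01% BRIJ-35, 10 mM MgCl2, 1 mM EGTA. Each 10 μL reaction holds 0.5-11.7 ng enzyme and 2 μM Tyr 01. It incubates for 1 hour, then 5 μL of Development Reagent B diluted 1:256 is added.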

BRAF V600E = BRAF V600E (Homo sapiens (Human), UniProt P15056, V600E); experiment: Inhibitory activity against kinase BRAF V600E, Z'-LYTE method (Invitrogen); format: biochemical; conditions: for inhibition at 1 µM: 1 μM compound, read-out: Inhibition (% inhibition at 1 μM) against BRAF V600E
Method in brief: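 FRET-based Z′-LYTE peptide-phosphorylation assay in 50 mM HEPES pH 7.5, 0.01% BRIJ-35, 10 mM MgCl2, 1 mM EGTA; kinase reaction 60 min at room temperature, then 60 min development before fluorescence read. IC50 from concentration vs % inhibition; single-point % inhibition tested at 1 μM.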

A375 cells = experiment: Inhibition of cancer cell growth, MTT or MTS assay, A375; format: cell-based; conditions: Homo sapiens, A-375; 72 h incubation
Method in brief: (§1)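 Cells in RPMI 1640 with 10% FBS were seeded at ~2000 (A375) or 4000 (A549, Colo205) per well, grown 24 h, then exposed to compound 72 h at 1% final DMSO. Read-out by MTT (570 nm) or MTS (490 nm). IC50 from concentration vs percent inhibition, triplicates.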

A549 cells = experiment: Inhibition of cancer cell growth, MTT or MTS assay, A549; format: cell-based; conditions: Homo sapiens, 72 h incubation
Method in brief: as §1

BRAF V600E, sequence (P15056 whole entry V600E): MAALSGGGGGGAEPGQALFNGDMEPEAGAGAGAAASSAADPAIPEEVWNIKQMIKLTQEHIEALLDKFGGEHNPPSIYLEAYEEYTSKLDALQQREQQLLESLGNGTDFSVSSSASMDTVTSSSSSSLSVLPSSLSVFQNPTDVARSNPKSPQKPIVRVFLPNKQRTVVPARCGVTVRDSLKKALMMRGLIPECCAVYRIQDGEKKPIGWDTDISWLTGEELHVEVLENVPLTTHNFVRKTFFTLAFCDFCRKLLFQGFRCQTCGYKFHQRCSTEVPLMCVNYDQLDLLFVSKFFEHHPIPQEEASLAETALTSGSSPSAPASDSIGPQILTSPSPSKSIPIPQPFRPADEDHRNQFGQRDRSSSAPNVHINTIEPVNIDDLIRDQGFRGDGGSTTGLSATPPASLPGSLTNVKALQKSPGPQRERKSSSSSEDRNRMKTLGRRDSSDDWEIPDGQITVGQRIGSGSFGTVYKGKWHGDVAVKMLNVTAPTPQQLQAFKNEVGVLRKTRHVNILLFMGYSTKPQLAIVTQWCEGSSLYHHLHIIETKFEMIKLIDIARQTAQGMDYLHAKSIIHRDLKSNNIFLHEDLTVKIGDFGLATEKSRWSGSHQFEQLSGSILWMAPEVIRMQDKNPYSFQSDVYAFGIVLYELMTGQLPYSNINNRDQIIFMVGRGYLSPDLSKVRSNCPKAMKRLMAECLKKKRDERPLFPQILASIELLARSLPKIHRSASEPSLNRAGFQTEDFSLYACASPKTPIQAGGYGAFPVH
KDR (VEGFR2), sequence (P35968 20-1356): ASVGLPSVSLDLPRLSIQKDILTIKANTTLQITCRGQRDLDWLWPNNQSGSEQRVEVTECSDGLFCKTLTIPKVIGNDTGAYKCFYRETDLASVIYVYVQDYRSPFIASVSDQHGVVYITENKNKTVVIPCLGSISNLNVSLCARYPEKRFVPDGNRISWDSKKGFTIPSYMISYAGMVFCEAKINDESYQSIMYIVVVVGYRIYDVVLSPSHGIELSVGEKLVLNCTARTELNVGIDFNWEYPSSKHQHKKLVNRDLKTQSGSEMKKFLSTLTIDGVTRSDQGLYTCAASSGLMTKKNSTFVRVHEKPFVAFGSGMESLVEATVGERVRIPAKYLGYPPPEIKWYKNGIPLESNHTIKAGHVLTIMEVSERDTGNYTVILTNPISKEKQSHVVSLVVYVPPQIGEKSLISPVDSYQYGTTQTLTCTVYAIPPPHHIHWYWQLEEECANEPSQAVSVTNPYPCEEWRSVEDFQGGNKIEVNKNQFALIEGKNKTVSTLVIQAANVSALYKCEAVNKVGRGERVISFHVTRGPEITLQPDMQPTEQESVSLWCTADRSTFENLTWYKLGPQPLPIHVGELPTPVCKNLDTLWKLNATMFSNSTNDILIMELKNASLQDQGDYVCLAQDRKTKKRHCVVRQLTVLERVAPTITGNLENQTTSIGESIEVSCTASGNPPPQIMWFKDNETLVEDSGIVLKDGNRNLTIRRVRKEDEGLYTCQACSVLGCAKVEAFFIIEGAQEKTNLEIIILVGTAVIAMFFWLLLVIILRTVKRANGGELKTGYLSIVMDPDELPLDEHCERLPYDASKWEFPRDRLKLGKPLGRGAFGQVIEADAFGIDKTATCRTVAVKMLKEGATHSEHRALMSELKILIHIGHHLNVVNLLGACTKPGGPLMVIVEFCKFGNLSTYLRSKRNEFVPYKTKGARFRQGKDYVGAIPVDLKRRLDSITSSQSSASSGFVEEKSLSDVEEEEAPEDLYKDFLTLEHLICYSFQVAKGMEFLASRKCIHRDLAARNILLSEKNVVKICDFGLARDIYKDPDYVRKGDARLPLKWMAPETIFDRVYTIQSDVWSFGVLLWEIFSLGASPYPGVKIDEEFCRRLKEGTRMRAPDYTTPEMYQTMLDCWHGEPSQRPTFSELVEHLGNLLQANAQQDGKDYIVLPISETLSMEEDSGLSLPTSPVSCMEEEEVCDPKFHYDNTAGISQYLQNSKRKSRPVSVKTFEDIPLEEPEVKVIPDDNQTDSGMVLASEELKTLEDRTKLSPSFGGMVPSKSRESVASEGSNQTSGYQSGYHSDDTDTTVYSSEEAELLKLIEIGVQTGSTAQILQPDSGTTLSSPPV
BRAF, sequence (P15056 whole entry): as the sequence (P15056 whole entry V600E) above, with E600V counted along it

| Compound | inhibition at 1 µM (BRAF) | inhibition at 1 µM (KDR (VEGFR2)) | inhibition at 1 µM (BRAF V600E) | IC50 (A375 cells) | IC50 (A549 cells) | IC50 (KDR (VEGFR2)) | IC50 (BRAF V600E) |
| --- | --- | --- | --- | --- | --- | --- | --- |
| O=C(Nc1cccc(F)c1)Nc1cccc(Oc2ccc3nccnc3c2)c1 [Compound C002, 1-(3-fluorophenyl)-3-(3-(quinoxalin-6-yloxy)phenyl)urea] | 70 to 89% | 70 to 89% | 70 to 89% | > 5 µM | – | – | – |
| O=C(Nc1cccc(Oc2ccc3nccnc3c2)c1)Nc1cccc(C(F)(F)F)c1 [Compound C003, 1-(3-(quinoxalin-6-yloxy)phenyl)-3-(3-(trifluoromethyl)phenyl)urea] | < 70% | > 89% | > 89% | > 5 µM | 2 to 5 µM | < 0.1 µM | > 0.1 µM |
| O=C(Nc1cccc(Oc2ccc3nccnc3c2)c1)c1cccc(C(F)(F)F)c1 [Compound C005, N-(3-(quinoxalin-6-yloxy)phenyl)-3-(trifluoromethyl)benzamide] | 70 to 89% | 70 to 89% | 70 to 89% | > 5 µM | > 5 µM | > 0.1 µM | < 0.1 µM |
| O=C(Nc1cccc(Oc2ccc3nccnc3c2)c1)c1ccc(Cl)c(C(F)(F)F)c1 [Compound C006, 4-chloro-N-(3-(quinoxalin-6-yloxy)phenyl)-3-(trifluoromethyl)benzamide] | < 70% | 70 to 89% | > 89% | > 5 µM | > 5 µM | – | – |
| O=C(Nc1cc(F)cc(Oc2ccc3nccnc3c2)c1)Nc1cccc(C(F)(F)F)c1 [Compound C021, 1-(3-fluoro-5-(quinoxalin-6-yloxy)phenyl)-3-(3-(trifluoromethyl)phenyl)urea] | < 70% | 70 to 89% | > 89% | 1 to 5 µM | < 2 µM | – | – |
| O=C(Nc1cc(F)cc(Oc2ccc3ncc(N4CCOCC4)nc3c2)c1)c1cccc(C(F)(F)F)c1 [Compound C028, N-(3-fluoro-5-((3-morpholinoquinoxalin-6-yl)oxy)phenyl)-3-(trifluoromethyl)benzamide] | < 70% | 70 to 89% | > 89% | 1 to 5 µM | > 5 µM | – | – |
| O=C(Nc1cccc(F)c1)Nc1ccc(F)c(Oc2ccc3ncc(N4CCOCC4)nc3c2)c1 [Compound C034, 1-(4-fluoro-3-((3-morpholinoquinoxalin-6-yl)oxy)phenyl)-3-(3-fluorophenyl)urea] | < 70% | < 70% | > 89% | < 1 µM | > 5 µM | – | – |
| O=C(Nc1cccc(Cl)c1)Nc1cccc(Oc2ccc3ncc(N4CCOCC4)nc3c2)c1 [Compound C047, 1-(3-chlorophenyl)-3-(3-((3-morpholinoquinoxalin-6-yl)oxy)phenyl)urea] | 70 to 89% | 70 to 89% | > 89% | 1 to 5 µM | > 5 µM | – | – |
| O=C(Nc1ccc(F)c(F)c1)Nc1ccc(F)c(Oc2ccc3ncc(N4CCOCC4)nc3c2)c1 [Compound C052, 1-(3,4-difluorophenyl)-3-(4-fluoro-3-((3-morpholinoquinoxalin-6-yl)oxy)phenyl)urea] | 70 to 89% | 70 to 89% | > 89% | 1 to 5 µM | – | – | – |
| O=C(Nc1ccc(F)cc1)Nc1ccc(F)c(Oc2ccc3ncc(N4CCNCC4)nc3c2)c1 [Compound C060, 1-(4-fluoro-3-((3-(piperazin-1-yl)quinoxalin-6-yl)oxy)phenyl)-3-(4-fluorophenyl)urea] | > 89% | > 89% | > 89% | – | 2 to 5 µM | – | – |
| O=C(Nc1ccc(F)c(F)c1)Nc1ccc(F)c(Oc2ccc3ncc(N4CCNCC4)nc3c2)c1 [Compound C061, 1-(3,4-difluorophenyl)-3-(4-fluoro-3-((3-(piperazin-1-yl)quinoxalin-6-yl)oxy)phenyl)urea] | > 89% | 70 to 89% | > 89% | – | > 5 µM | – | – |
| O=C(Nc1cc(F)cc(F)c1)Nc1ccc(F)c(Oc2ccc3ncc(N4CCNCC4)nc3c2)c1 [Compound C062, 1-(3,5-difluorophenyl)-3-(4-fluoro-3-((3-(piperazin-1-yl)quinoxalin-6-yl)oxy)phenyl)urea] | > 89% | 70 to 89% | > 89% | – | 2 to 5 µM | – | – |
| O=C(Nc1cccc(Cl)c1)Nc1ccc(F)c(Oc2ccc3ncc(N4CCNCC4)nc3c2)c1 [Compound C063, 1-(3-chlorophenyl)-3-(4-fluoro-3-((3-(piperazin-1-yl)quinoxalin-6-yl)oxy)phenyl)urea] | > 89% | > 89% | > 89% | – | 2 to 5 µM | – | – |
| O=C(Nc1ccc(Cl)cc1)Nc1ccc(F)c(Oc2ccc3ncc(N4CCNCC4)nc3c2)c1 [Compound C064, 1-(4-chlorophenyl)-3-(4-fluoro-3-((3-(piperazin-1-yl)quinoxalin-6-yl)oxy)phenyl)urea] | > 89% | > 89% | > 89% | – | 2 to 5 µM | – | – |
| O=C(Nc1cccc(C(F)(F)F)c1)Nc1ccc(F)c(Oc2ccc3ncc(N4CCNCC4)nc3c2)c1 [Compound C065, 1-(4-fluoro-3-((3-(piperazin-1-yl)quinoxalin-6-yl)oxy)phenyl)-3-(3-(trifluoromethyl)phenyl)urea] | > 89% | > 89% | > 89% | – | 2 to 5 µM | – | – |
| O=C(Nc1ccc(F)c(Cl)c1)Nc1ccc(F)c(Oc2ccc3ncc(N4CCNCC4)nc3c2)c1 [Compound C067, 1-(3-chloro-4-fluorophenyl)-3-(4-fluoro-3-((3-(piperazin-1-yl)quinoxalin-6-yl)oxy)phenyl)urea] | > 89% | > 89% | > 89% | – | < 2 µM | – | – |
| O=C(Nc1ccc(Cl)c(F)c1)Nc1ccc(F)c(Oc2ccc3ncc(N4CCNCC4)nc3c2)c1 [Compound C068, 1-(4-chloro-3-fluorophenyl)-3-(4-fluoro-3-((3-(piperazin-1-yl)quinoxalin-6-yl)oxy)phenyl)urea] | > 89% | 70 to 89% | > 89% | – | < 2 µM | – | – |
| O=C(Nc1ccc(Oc2ccc3nccnc3c2)cc1)Nc1cccc(F)c1 [Compound C074, 1-(3-fluorophenyl)-3-(4-(quinoxalin-6-yloxy)phenyl)urea] | < 70% | – | 70 to 89% | 1 to 5 µM | 2 to 5 µM | – | – |
| O=C(Nc1ccc(Oc2ccc3ncc(N4CCOCC4)nc3c2)cc1)Nc1cccc(Cl)c1 [Compound C081, 1-(3-chlorophenyl)-3-(4-((3-morpholinoquinoxalin-6-yl)oxy)phenyl)urea] | < 70% | > 89% | > 89% | – | > 5 µM | – | – |
| O=C(Nc1ccc(F)cc1)Nc1ccc(Oc2ccc3nccnc3c2)cc1F [Compound C094, 1-(2-fluoro-4-(quinoxalin-6-yloxy)phenyl)-3-(4-fluorophenyl)urea] | 70 to 89% | – | > 89% | > 5 µM | – | – | – |
| O=C(Nc1ccc(Cl)cc1)Nc1ccc(Oc2ccc3nccnc3c2)cc1F [Compound C096, 1-(4-chlorophenyl)-3-(2-fluoro-4-(quinoxalin-6-yloxy)phenyl)urea] | < 70% | – | > 89% | > 5 µM | – | – | – |
